Data: patent US11186583B2, “5-alkylthio-7-[(4-arylbenzyl)amino]-1(2)H-pyrazolo[4,3-d]pyrimidines for treatment of lymphoma” (UNIVERZITA PALACKEHO V OLOMOUCI, priority 2018, dated 2021)

Experiments:
Type in all cases: cell-based
[1] = tested on: MINO (mantle cell lymphoma); test: MTT cytotoxicity assay, MINO lymphoma cell line; details: Homo sapiens, 72 h, MINO cells, three days, read-out: Lymphoma cell lines GI50, MINO
Text: (§1) Cytotoxicity of the compounds is the major property determining their anti-lymphoma efficacy in vitro. One of the parameters used, as the basis for cytotoxicity assays, is the metabolic activity of viable cells. For example 2, a microtiter assay, which uses (3-(4,5-dimethylthiazol-2-yl)-2,5-diphenyltetrazolium bromide (MTT), is widely used to quantitate cell proliferation and cytotoxicity. This assay is widely used in drug screening programs and in chemosensitivity testing. Because only metabolically active living cells reduce MTT to correspond purple formazan dye, these assays detect viable cells exclusively. The quantity of reduced MTT corresponds to the number of vital cells in the culture.
(§2) The compounds were assayed using the following lymphoma cell lines: HT (diffuse large B-cell lymphoma, subtype—germinal center B-cell), OCI-LY2 (diffuse large B-cell lymphoma, subtype—germinal center B-cell), MINO (mantle cell lymphoma). All cell lines were grown in RPMI medium supplemented with fetal bovine serum and glutamine and maintained at 37° C. in a humidified atmosphere with 5% CO2. For cytotoxicity assays, 5000-10000 cells were seeded into each well of 96 well plate, allowed to stabilize for at least 8 h and then tested compounds were added at various concentrations ranging from 100 to 0.01 μM in triplicates. After three days, MTT solution (5 mg/ml; Sigma, St. Louis, USA) was added to cells and medium was replaced with DMSO after five hours. The absorbance was measured at 620 nm by employing a microplate reader. MTT assays were repeated 3 times for each drug application and untreated cells were used as reference. The GI50 values, drug concentrations lethal to 50% of the cells, were calculated from the obtained dose response curves.

[2] = tested on: HT (diffuse large B-cell lymphoma, subtype—germinal center B-cell); test: MTT cytotoxicity assay, HT lymphoma cell line; details: Homo sapiens, 72 h, HT cells, three days, read-out: Lymphoma cell lines GI50, HT
Text: as §1, §2

[3] = tested on: OCI-LY2 (diffuse large B-cell lymphoma, subtype—germinal center B-cell); test: MTT cytotoxicity assay, OCI-LY2 lymphoma cell line; details: 72 h, OCI-LY2 cells, three days, read-out: Lymphoma cell lines GI50, OCI-LY2
Text: as §1, §2

## CC(C)c1n[nH]c2c(NCc3ccc(-c4ccccn4)cc3)nc(SCCNC(=N)N)nc12 [Compound 4.10, 5-(2-Guanidino-1-ethyl)thio-3-isopropyl-7-[4-(2-pyridyl)benzyl]amino-1(2)H-pyrazolo[4,3-d]pyrimidine]
[1]
  GI50: 390 nM
[2]
  GI50: 390 nM
[3]
  GI50: 812 nM

## CC(C)c1n[nH]c2c(NCc3ccc(-c4ccccn4)cc3)nc(SCCCN(C)C)nc12 [Compound 4.20, 5[3-(Dimethylamino)-1-propyl]thio-3-isopropyl-7-[4-(2-pyridyl)benzyl]amino-1(2)H-pyrazolo[4,3-d]pyrimidine]
[1]
  GI50: 76 nM
[2]
  GI50: 105 nM
[3]
  GI50: 109 nM

## CC(C)c1n[nH]c2c(NCc3ccc(-c4ccccn4)cc3)nc(SCC(C)(C)O)nc12 [Compound 4.17, 5-(2-Hydroxy-2-methyl-1-propyl)thio-3-isopropyl-7-[4-(2-pyridyl)benzyl]amino-1(2)H-pyrazolo[4,3-d]pyrimidine]
[1]
  GI50: 477 nM
[2]
  GI50: 507 nM
[3]
  GI50: 610 nM

## CSCCSc1nc(NCc2ccc(-c3ccccn3)cc2)c2[nH]nc(C(C)C)c2n1 [Compound 4.30, 5-(2-Methylthio-1-ethyl)thio-3-isopropyl-7-[4-(2-pyridyl)benzyl]amino-1(2)H-pyrazolo[4,3-d]pyrimidine]
[1]
  GI50: 773 nM
[2]
  GI50: 975 nM
[3]
  GI50: 668 nM

## CC(C)c1n[nH]c2c(NCc3ccc(-c4ccccn4)cc3)nc(SCC(C)(C)N)nc12 [Compound 4.13, 5-(2-Amino-2-methyl-1-propyl)thio-3-isopropyl-7-[4-(2-pyridyl)benzyl]amino-1(2)H-pyrazolo[4,3-d]pyrimidin]
[1]
  GI50: 64 nM
[2]
  GI50: 85 nM
[3]
  GI50: 100 nM

## CC(C)c1n[nH]c2c(NCc3ccc(-c4ccccn4)cc3)nc(SCCNC(N)=O)nc12 [Compound 4.11, 5-(2-Ureido-1-ethyl)thio-3-isopropyl-7-[4-(2-pyridyl)benzyl]amino-1(2)H-pyrazolo[4,3-d]pyrimidine]
[1]
  GI50: 136 nM
[2]
  GI50: 240 nM
[3]
  GI50: 198 nM

## CC(C)c1n[nH]c2c(NCc3ccc(-c4ccccn4)cc3)nc(SCC(O)CN3CCOCC3)nc12 (stereo not drawn) [Compound 4.24]
[1]
  GI50: 243 nM
[2]
  GI50: 200 nM
[3]
  GI50: 200 nM

## CCC(CO)Sc1nc(NCc2ccc(-c3ccccn3)cc2)c2[nH]nc(C(C)C)c2n1 (stereo not drawn) [Compound 4.5, 5-(1-Hydroxy-2-butyl)thio-3-isopropyl-7-[4-(2-pyridyl)benzyl]amino-1(2)H-pyrazolo[4,3-d]pyrimidin]
[1]
  GI50: 119 nM
[2]
  GI50: 255 nM
[3]
  GI50: 181 nM

## CC(O)CSc1nc(NCc2ccc(-c3ccccn3)cc2)c2[nH]nc(C(C)C)c2n1 (stereo not drawn) [Compound 4.3, 5-(2-Hydroxy-1-propyl)thio-3-isopropyl-7-[4-(2-pyridyl)benzyl]amino-1(2)H-pyrazolo[4,3-d]pyrimidine]
[1]
  GI50: 81 nM
[2]
  GI50: 62 nM
[3]
  GI50: 152 nM

## CC(C)c1n[nH]c2c(NCc3ccc(-c4ccccn4)cc3)nc(SCCN(C)C)nc12 [Compound 4.19]
[1]
  GI50: 93 nM
[2]
  GI50: 54 nM
[3]
  GI50: 61 nM

## CC(=O)NCCSc1nc(NCc2ccc(-c3ccccn3)cc2)c2[nH]nc(C(C)C)c2n1 [Compound 4.12, 5-(2-Acetylamino-1-ethyl)thio-3-isopropyl-7-[4-(2-pyridyl)benzyl]amino-1(2)H-pyrazolo[4,3-d]pyrimidine]
[1]
  GI50: 42 nM
[2]
  GI50: 71 nM
[3]
  GI50: 54 nM

## CC(C)c1n[nH]c2c(NCc3ccc(-c4ccccn4)cc3)nc(SCC(N)=O)nc12 [Compound 4.7, 5-(Carbamoylmethyl)thio-3-isopropyl-7-[4-(2-pyridyl)benzyl]amino-1(2)H-pyrazolo[4,3-d]pyrimidine]
[1]
  GI50: 197 nM
[2]
  GI50: 192 nM
[3]
  GI50: 163 nM

## CC(C)c1n[nH]c2c(NCc3ccc(-c4ccccn4)cc3)nc(SCC3CNC(=O)O3)nc12 (stereo not drawn) [Compound 4.28, 5-[(Oxazolidin-2-on-5-yl)methyl]thio-3-isopropyl-7-[4-(2-pyridyl)benzyl]amino-1(2)H-pyrazolo[4,3-d]pyrimidine]
[1]
  GI50: 69 nM
[2]
  GI50: 80 nM
[3]
  GI50: 53 nM
